These results are taken from US20130303564A1, “METHOD FOR TREATING A NEURODEGENERATIVE DISORDER” (RUSH UNIVERSITY MEDICAL CENTER, priority 2012, published 2013).

One experiment concerns NF-κB. The experiment in a line: Transcriptional activity of NF-κB (PBIIX-Luc reporter) in BV-2 microglial cells. The class given is cell-based, mouse. As to conditions: co-incubated with NaPB 6 h. On the procedure: Transcriptional activity of NF-κB: Transcriptional activity of NF-κB was assayed. […] After 24 h of transfection, […], and firefly and Renilla luciferase activities were recorded in a TD-20/20 Luminometer (Turner Designs, Sunnyvale, Calif.) by analyzing total cell extract according to standard instructions provided in the Dual Luciferase Kit (Promega), Relative luciferase activity of cell extracts was typically represented as (firefly luciferase value/Renilta luciferase value)×10^−3.

For another experiment, the system named is BV-2 microglial cells. Nature of the experiment: Superoxide production in microglial cells. In kind it is cell-based, mouse. As to conditions: co-incubated with NaPB 6 h, then LPS 10 min. From the text: Results represent three independent experiments.
Superoxide measurements: Superoxide production was detected by LumiMax™ Superoxide Anion Detection Kit (Stratagene) as described by us (30).

A further experiment relates to cholesterol. The experiment in a line: Serum cholesterol in male C57/BL6 mice. In kind it is in vivo, mouse. The following applies: 1 mg/kg body wt/d via gavage, 7 d. On the procedure:
Mice (6-8 wk old) were treated with NaPB (200 mg/kg body wt/d) and pravastatin (1 mg/kg body wt/d) separately via gavage for 7 d followed by quantification of cholesterol in serum using a simple fluorometric method.
Intermediates of the mevalonate pathway play a role in the expression of iNOS and proinflammatory cytokines in glial cells. End product of the mevalonate pathway is cholesterol and therefore, we investigated if NaPB had any effect on the level of cholesterol in vivo in mice.
Assay of cholesterol in serum: Total cholesterol was quantified irr serum by using an Amplex Red Cholesterol Assay kit from Invitrogen. Briefly, cholesterol was oxidized by cholesterol oxidase to yield H2O2, which then reacted with 10-acetyl-3,7 dihydroxyphenoxazine (Amplex Red). In the presence of horseradish peroxidase (HRP), this Amplex Red:H2O2 complex produced highly fluorescent resorufin, which was detected by fluorometry.

For the next experiment, the system named is primary mouse microglia. The experiment in a line: LPS-induced NO (nitrite) production in primary mouse microglia. The following applies: other HDAC inhibitors, different concentrations, 6 h preincubation, LPS 24 h. In kind it is cell-based. On the procedure:
Primary mouse microglia were treated with different concentrations of NaPB for 6 h followed by stimulation with LPS under serum-free condition. After 24 h of stimulation, concentrations of nitrite were measured in supernatants (A) and the level of iNOS protein was monitored in cells by Western blot (B). […] After 5 h of stimulation, the expression of iNOS mRNA was monitored by semi-quantitative RT-PCR (C). Cells preinctibated with different concentration of trichostatin A (TSA) and sodium butyrate (NaBu) for 6 h were stimulated with LPS for 24 h under serum-free condition followed by monitoring the level of nitrite in supernatants (p). […] Primary human astroglia isolated from fetal brain tissues were treated with different concentrations of NaPB for 6 h followed by stimulation with IL-1β under serum-free condition. After 48 h of stimulation, concentrations of nitrite (E) were measured in supernatants. Human astroglia plated at 70-80% confluence in 12-well plates were co-transfected with 0.25 μg of phiNOS(7.2)Luc and 12.5 ng of pRL-TK using the Lipofectamine-Plus (Invitrogen). Twenty-four h after transfection, cells received NaPB. After 6 h of incubation, cells were stimulated with IL-1β (20 ng/ml) for 12 h. Firefly (ff-Luc) and Renilla (r-Luc) luciferase activities were obtained by analyzing the total cell extract (F).
Activated microglia and astroglia are known to produce excessive amount of NO having the potential of damaging neurons in neurodegenerative disorders. We investigated the effect of NaPB on the expression of iNOS in microglia. LPS is a prototype inducer of various proinflammatory molecules in different cell types including mouse microglia. Therefore, primary mouse microglia preincubated with different doses of NaPB for 6 h were stimulated with LPS under serum-free condition. […] We used trichostatin A (TSA) and sodium butyrate (NaBu) for this purpose.
Isolation of Mouse Microglia: Microglia were isolated from mixed glial cultures. Briefly, on day 7-9, the mixed glial cultures were washed three times with Dulbecco's modified Eagle's medium/F-12 and subjected to shaking at 240 rpm for 2 h at 37° C. on a rotary shaker. The floating cells were washed and seeded on to plastic tissue culture flasks and incubated at 37° C. for 1 h. The attached cells were seeded onto new plates for further studies. […] Mouse BV-2 microglial cells (kind gift from Virginia Bocchini of Universityof Perugia) were also maintained and induced as indicated above.

For `CC(C)=CCC/C(C)=C/CC/C(C)=C/CC/C(C)=C/COP(=O)(O)OP(=O)(O)O` [GGPP, geranylgeranyl pyrophosphate], in the experiment on NF-κB, the “effect on NaPB-mediated inhibition of NF-κB activation” value is “abrogated the inhibitory effect of NaPB”. Further, the “effect on NaPB-mediated inhibition of superoxide production” value in the experiment with BV-2 microglial cells is on record as “abolished the inhibitory effect of NaPB”.
With `CC[C@H](C)C(=O)O[C@H]1C[C@H](O)C=C2C=C[C@H](C)[C@H](CC[C@@H](O)C[C@@H](O)CC(=O)O)[C@H]21` [pravastatin], the “reduction of the level of cholesterol in serum” value with cholesterol is listed as approximately 29%.
As to `COC1=C(OC)C(=O)C(C/C=C(\C)CC/C=C(\C)CC/C=C(\C)CC/C=C(\C)CC/C=C(\C)CC/C=C(\C)CC/C=C(\C)CC/C=C(\C)CC/C=C(\C)CCC=C(C)C)=C(C)C1=O` [coenzyme Q], in the experiment with NF-κB, the “effect on NaPB-mediated inhibition of NF-κB activation” value is “had no effect”. Besides, in the experiment with BV-2 microglial cells, the “effect on NaPB-mediated inhibition of superoxide production” value is “had no effect”.
For the molecule `CCCC(=O)[O-].[Na+]` [NaBu, sodium butyrate], the “effect on LPS-induced production of NO” value in the experiment on primary mouse microglia is listed as “stimulated”.
In the case of `CC(C)(CO[P@@](=O)(O)O[P@@](=O)(O)OC[C@H]1O[C@@H](n2cnc3c(N)ncnc32)[C@H](O)[C@@H]1OP(=O)(O)O)[C@@H](O)C(=O)NCCC(=O)NCCSC(=O)C[C@@](C)(O)CC(=O)O` [HMG-CoA], the “effect on NaPB-mediated inhibition of NF-κB activation” value in the experiment on NF-κB is “abrogated the inhibitory effect of NaPB”. Besides, the “effect on NaPB-mediated inhibition of superoxide production” value in the experiment with BV-2 microglial cells is reported as “abolished the inhibitory effect of NaPB”.
The corresponding values for `CC(O)(CCO)CC(=O)O` (centres unmarked) [mevalonate] are “abrogated the inhibitory effect of NaPB” and “abolished the inhibitory effect of NaPB”.
The corresponding values for `CC(C)CCC[C@@H](C)[C@H]1CC[C@H]2[C@@H]3CC=C4C[C@@H](O)CC[C@]4(C)[C@H]3CC[C@]12C` [cholesterol] are “had no effect” and “had no effect”.
As for `CC(C)=CCC/C(C)=C/CC/C(C)=C/COP(=O)(O)OP(=O)(O)O` [FPP, farnesyl pyrophosphate], the “effect on NaPB-mediated inhibition of NF-κB activation” value with NF-κB is reported as “abrogated the inhibitory effect of NaPB”.
Regarding `CC(/C=C/C(=O)NO)=C\[C@@H](C)C(=O)c1ccc(N(C)C)cc1` [TSA, trichostatin A], in the experiment with primary mouse microglia, the “effect on LPS-induced production of NO” value was “attenuated”.
